One data set relates to Nrk. Description: Relative gene expression in neural differentiation culture of murine embryonic stem cells (ES-D3), microarray. To be noted: exposed from day 3, harvested day 4 (24 h exposure), ratio to reference value, concentration coded in label (L low, H high, Table 3).
The subject of another data set is 1700011H14Rik. The description is as above. The following applies: exposed from day 3, harvested day 4 (24 h exposure), ratio to reference value, concentration coded in label (L low, H high, Table 3).
For the next data set, the system named is Hoxb6. The description is as above. To be noted: exposed from day 3, harvested day 4 (24 h exposure), ratio to reference value, concentration coded in label (L low, H high, Table 3).
The subject of another data set is Tph1. Described as above. To be noted: exposed from day 3, harvested day 4 (24 h exposure), ratio to reference value, concentration coded in label (L low, H high, Table 3).
Data set [1] concerns neural outgrowth of embryoid bodies from murine embryonic stem cells (ES-D3). Description: Golden standard classification of neurodevelopmental toxicity (morphological scoring of neural outgrowth). The following applies: for Golden standard: tox / nontox at the concentration coded in the label (Table 3); for Neuro-developmentally toxic: yes / no at the concentration (μM) given in Table 3.

The test system is the same in data set [2].

Like-named read-outs stand apart in the source and are kept apart here.

For `NC(=O)N1c2ccccc2C=Cc2ccccc21` [cbzL, Carbamazepine], the “relative expression value Nrk” value in the data set on Nrk came out at 1.055; in the data set on Nrk (listed as cbzH) it was 1.217. The “relative expression value 1700011H14Rik” value in the data set with 1700011H14Rik is recorded as 0.870; with 1700011H14Rik (listed as cbzH) it was 0.533. Moreover, the “relative expression value Hoxb6” value with Hoxb6 stood at 0.991; in the data set with Hoxb6 (listed as cbzH), 0.950. Besides, the entries for the “relative expression value Tph1” value with Tph1 and in the data set on Tph1 (listed as cbzH) were 0.945 and 0.751, respectively. Besides, the Golden standard entry in data set [1] is given as “nontox”; in data set [1] (listed as cbzH), “tox”. Also, the figures for the Neuro-developmentally toxic result in data set [1] and in data set [1] (listed as cbzH) were “no” and “yes”, respectively.

As to `O=C1NC(=O)C(c2ccccc2)(c2ccccc2)N1` [pheL, Phenytoin], the figures for the “relative expression value Nrk” value in the data set with Nrk and with Nrk (listed as pheH) were 0.766 and 0.781, respectively. Moreover, the “relative expression value 1700011H14Rik” value in the data set with 1700011H14Rik amounted to 1.146; in the data set with 1700011H14Rik (listed as pheH) it was 0.995. Moreover, the “relative expression value Hoxb6” value in the data set with Hoxb6 amounted to 0.839; in the data set with Hoxb6 (listed as pheH), 0.840. Also, the “relative expression value Tph1” value in the data set with Tph1 turned out to be 0.817; in the data set with Tph1 (listed as pheH) it was 0.781. Also, the Golden standard entry is given as “nontox” in data set [1] and “tox” in data set [1] (listed as pheH). Further, the Neuro-developmentally toxic entry in data set [1] is reported as “no”; in data set [1] (listed as pheH), “yes”.

As for `CCCC(CCC)C(=O)O` [VpaL, Valproic acid], the “relative expression value Nrk” value in the data set on Nrk stood at 0.914; in the data set on Nrk (listed as VpaH) it was 1.518. Also, the figures for the “relative expression value 1700011H14Rik” value in the data set on 1700011H14Rik and in the data set on 1700011H14Rik (listed as VpaH) were 0.962 and 0.316, respectively. Further, the “relative expression value Hoxb6” value in the data set with Hoxb6 is 0.807; with Hoxb6 (listed as VpaH), 0.721. Moreover, the “relative expression value Tph1” value in the data set with Tph1 is recorded as 0.944; with Tph1 (listed as VpaH), 1.130. Moreover, the Golden standard entry in data set [1] was “nontox”; in data set [1] (listed as VpaH), “tox”. Further, the Neuro-developmentally toxic entry in data set [1] is given as “no”; in data set [1] (listed as vpaH), “yes”.

Consider `CCCCC(O)(Cn1cncn1)c1ccc(Cl)cc1Cl` (stereo not shown) [hexL, Hexaconazole], for which, in data set [2], the Golden standard entry is given as “nontox” and the Neuro-developmentally toxic result is on record as “no”.

Regarding `CC1(C)S[C@@H]2[C@H](NC(=O)Cc3ccccc3)C(=O)N2[C@H]1C(=O)[O-].[Na+]` [pengL, Penicillin G], in data set [1], the Golden standard result is reported as “nontox” and the Neuro-developmentally toxic result is “no”.

With `CC=O` [aceL, Acetaldehyde], the “relative expression value Nrk” value in the data set on Nrk is recorded as 0.909; in the data set with Nrk (listed as aceH) it was 1.290. Moreover, the “relative expression value 1700011H14Rik” value came out at 1.175 in the data set with 1700011H14Rik and 0.562 in the data set on 1700011H14Rik (listed as aceH). In addition, the figures for the “relative expression value Hoxb6” value with Hoxb6 and in the data set on Hoxb6 (listed as aceH) were 0.917 and 1.100, respectively. Besides, the “relative expression value Tph1” value in the data set on Tph1 was 0.891; with Tph1 (listed as aceH) it was 1.094. Besides, the Golden standard result in data set [1] was “nontox”; in data set [1] (listed as aceH), “tox”. For the same compound, the Neuro-developmentally toxic entry in data set [1] was “no”; in data set [1] (listed as aceH) it was “yes”.

For the compound Methylmercury chloride [mehgH], the “relative expression value Nrk” value in the data set with Nrk was 0.719. The “relative expression value 1700011H14Rik” value with 1700011H14Rik is recorded as 1.665. In addition, the “relative expression value Hoxb6” value with Hoxb6 worked out at 1.302. Further, the “relative expression value Tph1” value in the data set on Tph1 was 1.116. For the same compound, in data set [1], the Golden standard result is given as “tox” and the Neuro-developmentally toxic result is given as “yes”.

The values are drawn from US9790545B2, “Method for determining the neurodevelopmental toxicity of a compound in vitro” (UNIVERSITEIT MAASTRICHT, priority 2012, dated 2017).
